Measured values reported in ChEMBL document CHEMBL1155682, “Cernuosides A and B, two sucrase inhibitors from Pulsatilla cernua” (J Nat Prod, 2000).

Biological target: Sucrase-isomaltase, intestinal (Rattus norvegicus, UniProt P23739)
Assay: Inhibition of rat intestinal sucrase

Sequence of Sucrase-isomaltase, intestinal (P23739 1-1013 limits assumed): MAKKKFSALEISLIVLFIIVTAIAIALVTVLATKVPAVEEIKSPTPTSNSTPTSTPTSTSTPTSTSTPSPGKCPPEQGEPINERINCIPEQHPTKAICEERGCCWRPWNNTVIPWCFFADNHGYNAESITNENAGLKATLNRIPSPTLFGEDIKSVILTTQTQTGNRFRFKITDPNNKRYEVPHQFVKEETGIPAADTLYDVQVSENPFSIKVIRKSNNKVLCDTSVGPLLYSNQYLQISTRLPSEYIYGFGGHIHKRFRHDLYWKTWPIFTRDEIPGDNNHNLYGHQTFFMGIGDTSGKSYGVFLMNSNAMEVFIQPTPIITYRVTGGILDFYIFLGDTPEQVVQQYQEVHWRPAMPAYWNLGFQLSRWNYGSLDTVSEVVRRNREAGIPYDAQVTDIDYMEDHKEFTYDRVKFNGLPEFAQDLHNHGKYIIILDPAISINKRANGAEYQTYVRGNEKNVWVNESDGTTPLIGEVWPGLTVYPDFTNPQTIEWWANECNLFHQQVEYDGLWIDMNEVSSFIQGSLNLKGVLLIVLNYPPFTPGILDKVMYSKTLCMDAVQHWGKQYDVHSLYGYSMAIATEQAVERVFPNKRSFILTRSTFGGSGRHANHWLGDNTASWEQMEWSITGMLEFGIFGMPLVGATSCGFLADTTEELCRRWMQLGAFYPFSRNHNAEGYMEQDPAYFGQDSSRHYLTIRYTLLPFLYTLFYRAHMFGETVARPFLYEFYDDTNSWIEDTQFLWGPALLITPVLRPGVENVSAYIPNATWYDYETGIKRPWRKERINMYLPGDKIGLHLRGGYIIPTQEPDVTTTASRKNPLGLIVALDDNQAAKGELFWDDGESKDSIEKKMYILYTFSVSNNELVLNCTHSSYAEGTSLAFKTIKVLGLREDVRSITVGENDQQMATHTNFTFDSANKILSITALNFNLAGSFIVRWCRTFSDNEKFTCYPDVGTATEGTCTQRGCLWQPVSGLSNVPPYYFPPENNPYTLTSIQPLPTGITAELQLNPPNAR
Sequence of Sucrase-isomaltase, intestinal (P23739 1014-1841 limits assumed): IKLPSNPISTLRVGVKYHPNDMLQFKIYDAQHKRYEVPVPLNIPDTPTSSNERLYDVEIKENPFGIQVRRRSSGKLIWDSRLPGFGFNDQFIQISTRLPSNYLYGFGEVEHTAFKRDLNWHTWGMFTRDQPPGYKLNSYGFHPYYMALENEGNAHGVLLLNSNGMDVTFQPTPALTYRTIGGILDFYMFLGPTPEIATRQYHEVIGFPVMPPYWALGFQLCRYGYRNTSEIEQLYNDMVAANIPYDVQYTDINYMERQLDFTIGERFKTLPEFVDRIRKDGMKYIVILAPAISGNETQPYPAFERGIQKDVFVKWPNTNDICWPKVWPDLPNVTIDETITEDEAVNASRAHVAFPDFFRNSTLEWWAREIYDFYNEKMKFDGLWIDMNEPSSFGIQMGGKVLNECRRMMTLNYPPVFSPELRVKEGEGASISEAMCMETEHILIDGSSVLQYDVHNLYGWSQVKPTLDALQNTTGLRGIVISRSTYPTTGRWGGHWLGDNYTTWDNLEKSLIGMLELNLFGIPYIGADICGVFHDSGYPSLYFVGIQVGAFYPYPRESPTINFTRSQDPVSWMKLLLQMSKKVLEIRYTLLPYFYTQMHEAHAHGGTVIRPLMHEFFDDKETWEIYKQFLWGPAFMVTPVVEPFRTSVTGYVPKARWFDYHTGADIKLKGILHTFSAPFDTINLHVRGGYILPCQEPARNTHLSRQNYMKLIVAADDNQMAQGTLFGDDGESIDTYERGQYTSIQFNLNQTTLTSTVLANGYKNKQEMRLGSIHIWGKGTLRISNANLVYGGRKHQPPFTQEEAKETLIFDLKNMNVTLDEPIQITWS

| IC50 | Structure (SMILES) |
| --- | --- |
| 59.5 µM | C[C@@H]1O[C@@H](O[C@H]2[C@H](O)[C@@H](O)[C@H](OC[C@H]3O[C@@H](OC(=O)[C@]45CCC(C)(C)C[C@H]4C4=CC[C@@H]6[C@@]7(C)CC[C@H](O[C@@H]8OC[C@H](O[C@@H]9O[C@H](CO)[C@@H](O)[C@H](O)[C@H]9O)[C@H](O)[C@H]8O[C@@H]8O[C@@H](C)[C@H](O)[C@@H](O[C@@H]9O[C@H](CO)[C@@H](O)[C@H](O)[C@H]9O)[C@H]8O)C(C)(C)[C@@H]7CC[C@@]6(C)[C@]4(C)CC5)[C@H](O)[C@@H](O)[C@@H]3O)O[C@@H]2CO)[C@H](O)[C@H](O)[C@H]1O [CERNUOSIDE A] |
| 45.8 µM | C[C@@H]1O[C@@H](O[C@H]2[C@H](O)[C@@H](O)[C@H](OC[C@H]3O[C@@H](OC(=O)[C@]45CCC(C)(C)C[C@H]4C4=CC[C@@H]6[C@@]7(C)CC[C@H](O[C@@H]8OC[C@H](O[C@@H]9O[C@H](CO)[C@@H](O)[C@H](O)[C@H]9O)[C@H](O)[C@H]8O[C@@H]8O[C@@H](C)[C@H](O)[C@@H](O[C@@H]9O[C@H](CO)[C@@H](O)[C@H](O)[C@H]9O)[C@H]8O)[C@@](C)(CO)[C@@H]7CC[C@@]6(C)[C@]4(C)CC5)[C@H](O)[C@@H](O)[C@@H]3O)O[C@@H]2CO)[C@H](O)[C@H](O)[C@H]1O [CERNUOSIDE B] |
